According to patent US20080274095A1, “Biocides” (priority 2004, published 2008):
Ends that are not written are not given here.

Tests used:
Caco-2 Host Cells = assay: Host cell toxicity assay by LDH release; format: cell-based, human
Description: Host cell toxicity assay was performed by measuring the release of lactate dehydrogenase (LDH) in the medium using a CYTOTOX 96 Non-Radioactive Cytotoxicity Assay kit (Promega, Madison, Wis.). Toxicity was therefore classified as non toxic 0-5% LDH release and mild toxicity 5-10% LDH release (ref).

[1] = read-out: affinity constant (Km) for substrate; cited from earlier work
[2] = system: panel of organisms in stationary growth phase; settings: cited from earlier work
C. parvum sporozoites = assay: Effect of PLA2 on C. parvum sporozoite infectivity for Caco-2 monolayers; format: cell-based, Cryptosporidium parvum
Description: This experiment describes the effects of PLA2 on sporozoite infectivity. Briefly, sporozoites were incubated in an isotonic saline solution (37° C., 30 min) with a range of concentrations of PLA2 isolated from honey bee venom (Sigma-Aldrich Corp., St. Louis, Mo., 1.5 U/μg protein). Control sporozoites were identically incubated in buffer containing concentration-matched BSA but no PLA2. Sporozoites were then washed in medium and inoculated onto replicate Caco-2 human intestinal epithelial cell monolayers. 24 h later, infection was quantified in test and control monolayers by immunofluorescence assay as described herein and the mean percent reduction of infection calculated. […] Percent viability of Caco-2 cells following exposure to PLA2-treated sporozoites (86%) was similar to that of uninoculated control cells (91%) at 24 hrs, as determined by trypan blue dye exclusion. […]
For this assay, isolated sporozoites are incubated (15 min, 37° C.) with an individual biocide in isotonic buffer over a range of concentrations that would theoretically be achievable at the sporozoite surface by targeted delivery as a MAb-biocide fusion protein. […] In parallel, viability of control sporozoites after incubation with the selected biocide concentrations is determined by fluorescein diacetate assay. […] Samples are then processed and evaluated as described herein. […]

Caco-2 cells = assay: Caco-2 cell viability by trypan blue dye exclusion; format: cell-based, human; settings: following exposure to PLA2-treated sporozoites, 24 hrs
Description: This experiment describes the effects of PLA2 on sporozoite infectivity. Briefly, sporozoites were incubated in an isotonic saline solution (37° C., 30 min) with a range of concentrations of PLA2 isolated from honey bee venom (Sigma-Aldrich Corp., St. Louis, Mo., 1.5 U/μg protein). Control sporozoites were identically incubated in buffer containing concentration-matched BSA but no PLA2. Sporozoites were then washed in medium and inoculated onto replicate Caco-2 human intestinal epithelial cell monolayers. 24 h later, infection was quantified in test and control monolayers by immunofluorescence assay as described herein and the mean percent reduction of infection calculated. […] Percent viability of Caco-2 cells following exposure to PLA2-treated sporozoites (86%) was similar to that of uninoculated control cells (91%) at 24 hrs, as determined by trypan blue dye exclusion. […] Through fusion of PLA2 to a monoclonal antibody with a high affinity for sporozoites, such as 1E10 or 4H9, lethal concentrations of biocide are deliverable to the sporozoite surface with relatively low amounts of biocide being used.

Compound | % LDH release (Caco-2 Host Cells; 10 μg/ml) [%] | % LDH release (Caco-2 Host Cells; 100 μg/ml) [%] | further results
b-defensin 1 (DHYNCVSSGGQCLYSACPIFTKIQGTCYRGKAKCCK; ends and bridges not checked; cysteine pairing not given here; UniProt P60022 33-68, looked up) [βD1, Peptides international] | 0.8 ± 1.0 | 2.3 ± 2.1 | –
lysozyme [LYZ] | – | −1.9 ± 1.3 | Km [1]: ~1000 µM
phospholipase A2 | – | – | Km [1]: ~100 µM
HNP-1: human neutrophil defensin, SEQ ID NO 38 | – | – | antimicrobial properties relative to other defensins [2]: most potent antimicrobial properties
lactoferricin B [LFB] | 3.7 ± 2.3 | 2.6 ± 2.0 | –
bee-venom phospholipase A2 [PLA2] | – | 0.7 ± 0.7 | concentration effective in neutralization (C. parvum sporozoites; preliminary data): < 0.02 units/ml; concentration achieving highly significant reduction of sporozoite infectivity (C. parvum sporozoites; sporozoites incubated 37° C., 30 min with bee venom PLA2, Caco-2 monolayers, 24 h, P<0.0005): ≤ 0.014 U/ml; Percent viability of Caco-2 cells (Caco-2 cells): 86%
NP-1: rabbit neutrophil defensin, SEQ ID NO 42 (VVCACRRALCLPRERRAGFCRIRGRIHPLCCRR) | – | – | antimicrobial properties relative to other defensins [2]: most potent antimicrobial properties
CC[C@H](C)[C@H](NC(=O)[C@H](CCCCN)NC(=O)[C@H](CCC(=O)O)NC(=O)[C@H](CCCCN)NC(=O)[C@H](CO)NC(=O)[C@H](CCCCN)NC(=O)[C@H](CCCNC(=N)N)NC(=O)[C@H](Cc1ccccc1)NC(=O)[C@H](Cc1ccccc1)NC(=O)[C@H](CC(=O)O)NC(=O)CNC(=O)[C@H](CC(C)C)NC(=O)[C@@H](N)CC(C)C)C(=O)NCC(=O)N[C@@H](CCCCN)C(=O)N[C@@H](CCC(=O)O)C(=O)N[C@@H](Cc1ccccc1)C(=O)N[C@@H](CCCCN)C(=O)N[C@@H](CCCNC(=N)N)C(=O)N[C@H](C(=O)N[C@H](C(=O)N[C@@H](CCC(N)=O)C(=O)N[C@@H](CCCNC(=N)N)C(=O)N[C@H](C(=O)N[C@@H](CCCCN)C(=O)N[C@@H](CC(=O)O)C(=O)N[C@@H](Cc1ccccc1)C(=O)N[C@@H](CC(C)C)C(=O)N[C@@H](CCCNC(=N)N)C(=O)N[C@@H](CC(N)=O)C(=O)N[C@@H](CC(C)C)C(=O)N[C@H](C(=O)N1CCC[C@H]1C(=O)N[C@@H](CCCNC(=N)N)C(=O)N[C@H](C(=O)N[C@@H](CCC(=O)O)C(=O)N[C@@H](CO)C(=O)O)[C@@H](C)O)C(C)C)[C@@H](C)CC)C(C)C)[C@@H](C)CC [CAT, cathelicidin] | 1.6 ± 0.3 | 5.6 ± 0.9 | –
b-defensin 2 [βD2] | −0.9 ± 0.5 | 5.3 ± 1.5 | –
indolicidin | 0.9 ± 0.7 | 8.3 ± 3.5 | –
phospho-inositol specific phospholipase C [PI-PLC] | – | −1.4 ± 0.9 | –
